Patent US5861476A, “Peptides and compounds that bind to the IL-1 receptor” (Affymax Technologies N.V., priority 1995, dated 1999)
Where no end group is shown, it is not given here.

Tests used:
[1] = target: T1, IL-1 induced down-regulation of the epidermal growth factor (EGF) receptor in normal human dermal fibroblasts (NHDF) (Homo sapiens, UniProt P14778); experiment: Epidermal Growth Factor Receptor Down Regulation Assay; type: cell-based; conditions: 37° C., in the presence of IL-1α, 125I-labeled EGF binding, read-out: IC50 (approximate concentration which blocked 50% of the IL-1 induced down regulation of the EGF receptor)
T1 sequence (P14778 18-569): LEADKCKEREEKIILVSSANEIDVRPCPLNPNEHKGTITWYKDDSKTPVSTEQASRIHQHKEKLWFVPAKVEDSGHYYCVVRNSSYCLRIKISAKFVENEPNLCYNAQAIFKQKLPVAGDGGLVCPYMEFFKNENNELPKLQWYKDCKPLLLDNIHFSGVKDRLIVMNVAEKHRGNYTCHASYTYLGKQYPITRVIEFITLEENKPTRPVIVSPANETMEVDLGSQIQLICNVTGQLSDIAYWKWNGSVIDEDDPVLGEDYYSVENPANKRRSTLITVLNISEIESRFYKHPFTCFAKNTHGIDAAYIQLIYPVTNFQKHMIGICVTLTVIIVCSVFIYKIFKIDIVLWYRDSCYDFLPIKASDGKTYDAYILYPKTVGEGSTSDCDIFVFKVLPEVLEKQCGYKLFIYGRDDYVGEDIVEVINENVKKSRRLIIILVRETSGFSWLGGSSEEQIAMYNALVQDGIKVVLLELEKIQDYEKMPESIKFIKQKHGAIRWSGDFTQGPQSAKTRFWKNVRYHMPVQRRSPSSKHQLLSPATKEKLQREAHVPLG
Text: The protocol set forth in Bird and Saklatvala (1989) J. Immunol. […] This assay examines the effect of the compounds of the invention on the IL-1 induced down-regulation of the epidermal growth factor (EGF) receptor as measured by the binding of ^125 I-labeled EGF to its receptor in normal human dermal fibroblasts (NHDF). […] The table below lists the approximate concentration of representative peptides of the invention which blocked 50% of the IL-1 induced down regulation of the EGF receptor. IC50 values are indicated symbolically by the symbols "-", "+", and "++". […] Those peptides which give IC50 values of less than or equal to 100 μM are given a "+", while those which give IC50 values of 500 nM or less are indicated with a "++". Those peptides which give IC50 values at or near the cutoff point for a particular symbol are indicated with a hybrid, e.g. "±". Those peptides for which IC50 values were not determined are listed as "N.D".

[2] = target: T2, IL-1 induced E-selectin in HUVEC cells (Homo sapiens, UniProt P14778); experiment: Peptide Effects on IL-1 Induced E-Selectin (HUVEC Cells); type: cell-based; conditions: 120 pM IL-1α, read-out: IC50 (concentration required to inhibit 50% of IL-1 induced E-selectin expression)
T2 sequence (P14778 18-569): T1 sequence (P14778 18-569)
Procedure: The compounds of the present invention were assayed for their ability to inhibit the expression of IL-1 induced E-selectin in HUVEC cells (human umbilical vein endothelial cells). HUVEC cells are grown to confluency in the wells of a 24-well microtiter plate. The compounds were serially diluted in DMEM/F12+0.1% BSA ("SFM"with 120 pM IL-1α. The cells were washed and then incubated with IL-1α and the compound to be tested for 15 minutes. The cells were again washed and incubated in SFM for 4 hours. The cells were washed and incubated with anti-selectin antibody for 30 minutes. Following antibody incubation, the cells were incubated with ^125 I Protein A and washed. The amount of ^125 I bound to the cells was then determined. The concentration of compounds required to inhibit 50% of IL-1 induced E-selectin expression is shown below.

IL-1RtI = target: T3, IL-1RtI (Homo sapiens, UniProt P14778); experiment: Inhibition of 125I-IL-1α binding to IL-1RtI (Example 3); conditions: inhibition of 125I-IL-1α binding to IL-1RtI; soluble peptide unless marked *
T3 construct: made in house; host or cells: recombinant host cells (one form soluble from baculovirus transformed host cells; another PIG-tailed and cleaved from the cell surface)
T3 sequence (P14778 18-336): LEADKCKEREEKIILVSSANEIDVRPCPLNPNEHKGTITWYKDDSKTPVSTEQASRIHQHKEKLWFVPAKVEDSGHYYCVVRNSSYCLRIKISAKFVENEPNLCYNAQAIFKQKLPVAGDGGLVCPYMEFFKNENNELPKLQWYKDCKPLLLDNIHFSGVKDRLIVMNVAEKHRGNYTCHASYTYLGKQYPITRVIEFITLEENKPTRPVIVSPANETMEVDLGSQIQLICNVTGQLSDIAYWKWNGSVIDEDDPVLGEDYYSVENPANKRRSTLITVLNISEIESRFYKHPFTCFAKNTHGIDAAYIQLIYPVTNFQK
Summary of the method: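 Competition with 90 pM 125I-IL-1α was run in duplicate for 2 h at 4 °C in HEPES-buffered RPMI with 1% BSA, pH 7.2-7.3, against either antibody-captured truncated receptor or cells with full-length IL-1RtI. Gamma counting of NaOH-detached material gave approximate IC50; high-affinity peptides used 24-well format.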

- IC50 [1]: ≤ 500 nM
- IC50 [2]: ≤ 500 nM
- IC50 (IL-1RtI): ≤ 500 nM
Sequence: TANVSSFEWTPGYWQPYALPL
